Literature values in US12649952B2, “NTRK fusion molecules and uses thereof” (Foundation Medicine, Inc., priority 2019, dated 2026).
Like-named read-outs stand apart in the source and are kept apart here. Blank lines part the entries; values can stand above or below the compound they belong to.

How the values were obtained:
preclinical models = settings: variety of preclinical models
[1] = system: lung adenocarcinoma cell line
neuroblastoma xenograft = settings: in vivo
neuroblastoma = settings: human, in vivo
[2] = system: NTRK1 fusion-positive tumors; settings: human, in vivo
[3] = system: NTRK fusion-positive cancers
Ntrk1/Hsp90 [4] = settings: results in degradation and depletion of Ntrk1
myeloid leukemia cells [5] = system: myeloid leukemia cells
Ntrk1/Hsp90 [6] = system: Ntrk1/Hsp90
myeloid leukemia cells [7] = system: myeloid leukemia cells; remark: listed apart in the source
NGF dimer = NGF dimer (Homo sapiens, UniProt P01138); settings: read-out: KD for binding the NGF dimer
tumor xenograft models = settings: variety of preclinical tumor xenograft models
[8] = system: lung adenocarcinoma with KRAS mutation; settings: mouse, in vivo
solid tumors [9] = settings: Phase 1, solid tumors
NTRK gene fusions = settings: after further follow-up, expanded patient population (n=159)
TrkA = TrkA (Homo sapiens, UniProt P04629); settings: for inhibition of Ntrk1 / NTRK1: result in words
solid tumors [10] = settings: Phase 1, 56 solid tumor patients
[11] = system: preclinical tumor models including a xenograft model of lung cancer; settings: in vivo
[12] = system: solid tumors with NTRK fusions; settings: monotherapy; adult and pediatric patients, with and without CNS metastases
[13] = system: NTRK fusion-positive AML cell lines

Chain of TrkA (P04629 33-796): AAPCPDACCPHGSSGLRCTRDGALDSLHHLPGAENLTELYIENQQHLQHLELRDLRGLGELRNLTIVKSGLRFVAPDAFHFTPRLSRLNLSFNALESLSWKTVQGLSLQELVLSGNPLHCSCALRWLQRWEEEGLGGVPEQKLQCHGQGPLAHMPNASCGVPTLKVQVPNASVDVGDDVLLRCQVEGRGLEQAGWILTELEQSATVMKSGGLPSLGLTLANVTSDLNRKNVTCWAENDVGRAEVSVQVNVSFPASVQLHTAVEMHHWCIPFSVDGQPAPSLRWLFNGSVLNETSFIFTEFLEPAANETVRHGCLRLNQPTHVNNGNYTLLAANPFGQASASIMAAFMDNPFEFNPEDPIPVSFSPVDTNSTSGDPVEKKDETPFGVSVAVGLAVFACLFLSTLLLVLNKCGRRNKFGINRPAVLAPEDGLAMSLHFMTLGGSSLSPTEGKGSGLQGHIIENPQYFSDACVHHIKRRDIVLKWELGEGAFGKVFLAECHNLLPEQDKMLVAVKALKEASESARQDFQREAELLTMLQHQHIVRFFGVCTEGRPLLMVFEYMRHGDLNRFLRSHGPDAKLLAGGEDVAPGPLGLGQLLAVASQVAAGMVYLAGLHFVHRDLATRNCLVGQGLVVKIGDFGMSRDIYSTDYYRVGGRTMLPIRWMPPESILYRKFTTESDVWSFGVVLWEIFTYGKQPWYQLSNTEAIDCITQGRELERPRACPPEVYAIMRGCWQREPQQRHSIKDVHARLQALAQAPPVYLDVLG
Chain of NGF dimer (P01138 122-241): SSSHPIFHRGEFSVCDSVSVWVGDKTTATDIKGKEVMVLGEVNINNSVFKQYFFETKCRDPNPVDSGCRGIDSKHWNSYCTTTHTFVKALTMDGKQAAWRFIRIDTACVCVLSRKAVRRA

Structure (SMILES): CO[C@]1(COC(=O)CCNC(=O)[C@@H](N)CCCCN)C[C@H]2O[C@]1(C)n1c3ccccc3c3c4c(c5c6ccccc6n2c5c31)C(=O)NC4 [CEP-2563]
- anti-tumor activity (preclinical models): anti-tumor activity

Structure (SMILES): COC(=O)[C@@]1(O)C[C@H]2O[C@]1(C)n1c3ccccc3c3c4c(c5c6ccccc6n2c5c31)C(=O)NC4 [K252a, (9S-(9a, 108,12a))-2,3,9,10,11,12-hexahydro-10-hydroxy-10-(methoxycarbonyl)-9-methyl-9,12-epoxy-1H-diindolo [1,2,3-fg: 3′,2′,1′-kl] pyrrolo [3,4-i][1,6] benzodiazocin-1-one]
- activation of the anti-apoptotic protein Akt [1]: block activation
- cell death [1]: promote cell death
- tumor cell growth [1]: reduce tumor cell growth

Structure (SMILES): C[C@]12O[C@H](C[C@]1(O)CO)n1c3ccccc3c3c4c(c5c6ccccc6n2c5c31)CNC4=O [lestaurtinib, (5S,6S,8R)-6-hydroxy-6-(hydroxymethyl)-5-methyl-7,8,14,15-tetrahydro-5H-16-oxa-4b,8a,14-triaza-5,8-methanodibenzo[b,h]cycloocta[jkl]cyclopenta[e]-as-indacen-13(6H)-one]
- tumor growth (neuroblastoma xenograft): inhibit tumor growth
- efficacy in clinical trials (neuroblastoma): effective

Structure (SMILES): C[C@@H](Oc1cc(-c2cnn(C3CCNCC3)c2)cnc1N)c1c(Cl)ccc(F)c1Cl [crizotinib]
- clinical responses [2]: Durable clinical responses

Structure (SMILES): C[C@@H]1CCc2ncc(F)cc2[C@H]2CCCN2c2ccn3ncc(c3n2)C(=O)N1 [LOXO-195]
- confirmed complete or partial response ([3]; 10 of 29 evaluable patients, RECIST 1.1, NTRK fusions resistant to other TRK-targeted therapeutics): 34%
- safety and tolerability ([3]; solid tumor cancer patients with NTRK fusions resistant to other TRK-targeted therapeutics): safe, tolerable

Structure (SMILES): CO[C@H]1/C=C\C=C(/C)C(=O)NC2=CC(=O)C(NCCN(C)C)=C(C[C@@H](C)C[C@H](OC)[C@H](O)[C@@H](C)/C=C(\C)[C@@H]1OC(N)=O)C2=O [17-DMAG]
- Ntrk1/Hsp90 binding (Ntrk1/Hsp90 [4]): disrupted Ntrk1/Hsp90 binding
- growth of myeloid leukemia cells (myeloid leukemia cells [5]): reduced the growth of myeloid leukemia cells
- Ntrk1/Hsp90 binding (Ntrk1/Hsp90 [6]): disrupted Ntrk1/Hsp90 binding
- Ntrk1 level (Ntrk1/Hsp90 [6]; consequence of disrupted Ntrk1/Hsp90 binding): degradation and depletion of Ntrk1
- growth of myeloid leukemia cells (myeloid leukemia cells [7]): reduced the growth of myeloid leukemia cells

- Kd (NGF dimer): ~1000 nM
Structure (SMILES): Cc1cc2nc3c(=O)[nH]c(=O)nc-3n(C)c2cc1C=O [Ro 08-2750]

Structure (SMILES): CNC(=O)c1nn(C)c2c1C(C)(C)Cc1cnc(Nc3ccc(N4CCN(C)CC4)cc3)nc1-2 [PHA-848125]
- anti-tumor effect (tumor xenograft models): anti-tumor effect
- tumor growth [8]: inhibit tumor growth
- partial response (solid tumors [9]): 2/14
- stable disease (solid tumors [9]): 9/28

Structure (SMILES): CC(C)Oc1cc(Nc2nc(N[C@@H](C)c3ccc(F)cn3)ncc2Cl)n[nH]1 [AZ-23, 5-chloro-N-[(1S)-1-(5-fluoropyridin-2-yl)ethyl]-N′-(5-propan-2-yloxy-1H-pyrazol-3-yl)pyrimidine-2,4-diamine]
- tumor growth (neuroblastoma xenograft): inhibit tumor growth

Structure (SMILES): O=C(Nc1cnn2ccc(N3CCC[C@@H]3c3cc(F)ccc3F)nc12)N1CC[C@H](O)C1 [Larotrectinib, larotrectinib]
- median duration of response (NTRK gene fusions): 35.2 (22.7—not evaluable [NE]) months
- overall response rate (NTRK gene fusions): 79%
- overall response rate (ORR) (NTRK fusion cancers; NTRK fusion cancers, current clinical trials): 75%
- responses ongoing, share of patients (NTRK fusion cancers; at 12 months of treatment): 75-81%
- CR observed, share of patients (NTRK fusion cancers; combined Phase 1, Phase 1/2 and Phase 2 data): 17%
- ORR (NTRK fusion cancers; combined Phase 1, Phase 1/2 and Phase 2 data, adult and pediatric patients, various solid tumors harboring NTRK fusions (88/109)): 81%
- intracranial efficacy (NTRK fusion cancers; individuals with NTRK fusion-positive gliomas or brain metastases): demonstrated

Structure (SMILES): CO[C@@H](C(=O)N1Cc2n[nH]c(NC(=O)c3ccc(N4CCN(C)CC4)cc3)c2C1)c1ccccc1 [danusertib]
- inhibition of Ntrk1 / NTRK1 (TrkA): inhibit Ntrk1
- objective response (solid tumors [10]): objective response in one non-small cell lung cancer patient
- tumor regression (solid tumors [10]): tumor regression in an ovarian cancer patient

- inhibition of Ntrk1 / NTRK1 (TrkA): inhibit NTRK1
Structure (SMILES): Nc1ncc(-c2cnn(C3CCNCC3)c2)cc1-c1nc2ccccc2o1 [KRC-108]
- antiproliferative activity [11]: antiproliferative activity

- IC50 (TrkA): < 1 nM
Structure (SMILES): NC(=O)Nc1snc(S[C@@H]2CCCCc3ccccc32)c1C(N)=O [isothiazole 5n]

Structure (SMILES): CN1CCN(c2ccc(C(=O)Nc3n[nH]c4ccc(Cc5cc(F)cc(F)c5)cc34)c(NC3CCOCC3)c2)CC1 [entrectinib, N-[5-(3,5-Difluorobenzyl)-1H-indazol-3-yl]-4-(4-methyl-1-piperazinyl)-2-(tetrahydro-2H-pyran-4-ylamino)benzamide]
- clinical benefit [12]: Clinical benefit
- sensitivity of cell lines [13]: preclinical sensitivity
